# Legend:
# [1] = molecular target: T1, HDAC 6 (Homo sapiens, UniProt Q9UBN7); test: Test of HDAC activities, HDAC6 (fluorimetric); type: biochemical; design: purchased Calbiochem 382180; settings: samples at 0.1, 1, 10, 100, 1000 nM; 37° C. 60 minutes; fluorescence Ex 390, Em 460; read-out: HDAC inhibitory activities, HDAC6
# T1 sequence (Q9UBN7 1-1215): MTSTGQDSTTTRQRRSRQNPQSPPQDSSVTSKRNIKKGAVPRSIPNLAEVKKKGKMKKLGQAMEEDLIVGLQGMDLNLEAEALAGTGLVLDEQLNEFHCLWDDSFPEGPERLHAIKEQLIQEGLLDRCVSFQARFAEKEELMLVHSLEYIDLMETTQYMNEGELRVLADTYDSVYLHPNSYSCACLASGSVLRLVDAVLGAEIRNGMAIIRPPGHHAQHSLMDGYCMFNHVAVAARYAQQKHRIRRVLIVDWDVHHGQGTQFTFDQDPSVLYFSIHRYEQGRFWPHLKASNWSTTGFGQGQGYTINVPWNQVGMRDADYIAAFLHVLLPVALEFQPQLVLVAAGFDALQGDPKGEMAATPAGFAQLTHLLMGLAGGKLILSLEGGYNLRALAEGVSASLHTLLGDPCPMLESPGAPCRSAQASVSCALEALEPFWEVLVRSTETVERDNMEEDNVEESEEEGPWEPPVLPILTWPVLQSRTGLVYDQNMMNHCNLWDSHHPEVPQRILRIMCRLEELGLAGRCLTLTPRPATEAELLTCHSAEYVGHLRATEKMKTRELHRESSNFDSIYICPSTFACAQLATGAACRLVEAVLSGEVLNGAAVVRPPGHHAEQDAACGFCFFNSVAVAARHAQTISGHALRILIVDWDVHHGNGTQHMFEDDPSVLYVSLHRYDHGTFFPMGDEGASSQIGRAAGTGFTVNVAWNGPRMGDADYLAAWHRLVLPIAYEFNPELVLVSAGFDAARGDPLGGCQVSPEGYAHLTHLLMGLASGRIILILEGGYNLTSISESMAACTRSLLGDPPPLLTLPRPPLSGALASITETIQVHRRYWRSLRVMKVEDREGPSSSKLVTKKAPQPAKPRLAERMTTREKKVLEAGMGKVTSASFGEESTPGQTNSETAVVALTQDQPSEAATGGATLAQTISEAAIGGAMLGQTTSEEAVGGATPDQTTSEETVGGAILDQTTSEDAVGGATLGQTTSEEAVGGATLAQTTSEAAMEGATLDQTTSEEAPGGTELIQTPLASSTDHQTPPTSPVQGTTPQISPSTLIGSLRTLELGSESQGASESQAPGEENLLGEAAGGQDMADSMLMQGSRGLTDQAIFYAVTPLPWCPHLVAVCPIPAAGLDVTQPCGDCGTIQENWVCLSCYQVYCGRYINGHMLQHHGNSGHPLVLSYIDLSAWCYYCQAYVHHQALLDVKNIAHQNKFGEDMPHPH
# Method in brief: (§1)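 HDAC1 tested at 100, 1000 and 10000 nM; recombinant human HDAC6 at 0.1, 1, 10, 100 and 1000 nM. Reaction 60 min at 37° C, then developer for 30 min at 37° C; fluorescence read at Ex 390/Em 460.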
# [2] = molecular target: HDAC1 (Homo sapiens, UniProt Q13547); test: Test of HDAC activities, HDAC1 Fluorimetric Drug Discovery Assay Kit; type: biochemical; design: purchased Enzolifesciences BML-AK511; settings: samples at 100, 1000, 10000 nM; 37° C. 60 minutes; fluorescence Ex 390, Em 460; read-out: HDAC inhibitory activities, HDAC1
# Method in brief: as §1
# [3] = test system: adjuvant-induced arthritis models; test: Adjuvant-induced arthritis models; type: in vivo, Lewis rat; settings: for clinical score: intraperitoneally, vehicle group 4.2
# Procedure: Complete Freund's Adjuvant (Chondrex) containing 10 mg/mL Heat killed mycobacteria toxin was sufficiently mixed, and then 100 μL was taken and intradermally injected into the upper part of the tail of Lewis rat to induce arthritis. After 10 days, the length of the ankle circumference of rats was measured, and then the rats were grouped and used in the experiment. Each compound was intraperitoneally injected twice a day. The clinical score, the length of the ankle circumference, and the weight were measured twice a week after the administration of the compounds. The clinical scores were assigned from 0 to 4 based on the thesis of Woods, etc. (J. Immunology, 1214-1222, 2001), and the total clinical score was determined by evaluating the feet of each rat and summing up the scores (normal: 0, most severe edema: 16). The length of the ankle circumference was calculated based on the formula of 2×3.14(√(a^2+b^2/2)) after measuring top-bottom sides (a) of the foot and lateral sides (b) of the foot. The final value was determined by averaging the calculated values of each foot.
# HDAC1, sequence (Q13547 whole entry): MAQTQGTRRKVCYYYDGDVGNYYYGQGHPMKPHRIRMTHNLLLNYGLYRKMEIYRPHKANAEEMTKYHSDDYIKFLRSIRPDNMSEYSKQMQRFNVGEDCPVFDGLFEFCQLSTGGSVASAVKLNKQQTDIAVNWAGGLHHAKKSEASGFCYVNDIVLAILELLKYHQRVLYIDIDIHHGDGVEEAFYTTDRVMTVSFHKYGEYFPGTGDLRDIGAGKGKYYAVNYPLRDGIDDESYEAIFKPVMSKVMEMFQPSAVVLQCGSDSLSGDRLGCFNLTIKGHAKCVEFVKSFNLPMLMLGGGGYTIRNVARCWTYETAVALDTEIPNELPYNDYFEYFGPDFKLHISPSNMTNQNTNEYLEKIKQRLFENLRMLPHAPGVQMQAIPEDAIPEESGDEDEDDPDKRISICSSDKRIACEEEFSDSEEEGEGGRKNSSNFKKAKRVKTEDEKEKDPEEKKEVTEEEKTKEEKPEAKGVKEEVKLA
Structure (SMILES),IC50 [1] [nM],IC50 [2] [nM],clinical score ([3]; 25 mg/kg twice a day),clinical score ([3]; 50 mg/kg twice a day),improvement compared with MTX used as the control group ([3]; 25 and 50 mg/kg twice a day),"arthritis symptoms improved by ([3]; 25 and 50 mg/kg twice a day, versus vehicle group) [%]"
"CCN1CCN(C(=O)N(Cc2ccc(C(=O)NO)cc2)c2cccc(C(F)(F)F)c2)CC1 [Compound 461, 4-ethyl-N-(4-(hydroxycarbamoyl)benzyl)-N-(3-(trifluoromethyl)phenyl)piperazine-1-carboxamide]",1,2720,1.9,1.3,higher than that of MTX,50 to 70
"O=C(NO)c1ccc(CN(C(=O)N2CCOCC2)c2ccc(C(F)(F)F)cc2)cc1 [Compound 385, N-(4-(hydroxycarbamoyl)benzyl)-N-(4-(trifluoromethyl)phenyl)morpholine-4-carboxamide]",5,976,–,–,–,–
"O=C(NO)c1ccc(CN(C(=O)N2CCC(O)CC2)c2cccc(-c3ccc4c(c3)OCO4)c2)cc1 [Compound 463, N-(3-(benzo[d][1,3]dioxol-5-yl)phenyl)-4-hydroxy-N-(4-(hydroxycarbamoyl)benzyl)piperidine-1-carboxamide]",3,284,–,–,–,–
"CCN1CCN(C(=O)N(Cc2ccc(C(=O)NO)cc2)c2ccc(Cl)c(C(F)(F)F)c2)CC1 [Compound 394, N-(4-chloro-3-(trifluoromethyl)phenyl)-4-ethyl-N-(4-(hydroxycarbamoyl)benzyl)piperazine-1-carboxamide]",11,2590,–,–,–,–
"CC1CCN(C(=O)N(Cc2ccc(C(=O)NO)cc2)c2ccc(F)c(Cl)c2)CC1 [Compound 457, N-(3-chloro-4-fluorophenyl)-N-(4-(hydroxycarbamoyl)benzyl)-4-methylpiperidine-1-carboxamide]",5,3360,–,–,–,–
"Cc1cccc(C)c1-c1cccc(N(Cc2ccc(C(=O)NO)cc2)C(=O)N2CCOCC2)c1 [Compound 401, N-(2′,6′-dimethylbiphenyl-3-yl)-N-(4-(hydroxycarbamoyl)benzyl)morpholine-4-carboxamide]",8,1790,–,–,–,–
"O=C(NO)c1ccc(CN(C(=O)N2CC=C(c3ccccc3)CC2)c2ccccn2)cc1 [Compound 352, N-(4-(hydroxycarbamoyl)benzyl)-4-phenyl-N-(pyridin-2-yl)-5,6-dihydropyridine-1(2H)-carboxamide]",7,4620,–,–,–,–
"CC(=O)N1CC=C(c2cccc(N(Cc3ccc(C(=O)NO)cc3)C(=O)N3CCOCC3)c2)CC1 [Compound 419, N-(3-(1-acetyl-1,2,3,6-tetrahydropyridin-4-yl)phenyl)-N-(4-(hydroxycarbamoyl)benzyl) morpholine-4-carboxamide]",5,460,–,–,–,–
"CCN1CCN(C(=O)N(Cc2ccc(C(=O)NO)cc2)c2ccc(C)cc2F)CC1 [Compound 453, 4-ethyl-N-(2-fluoro-4-methylphenyl)-N-(4-(hydroxycarbamoyl)benzyl)piperazine-1-carboxamide]",3,604,–,–,–,–
"CCN1CCN(C(=O)N(Cc2ccc(C(=O)NO)cc2)c2ccccn2)CC1 [Compound 354, 4-ethyl-N-(4-(hydroxycarbamoyl)benzyl)-N-(pyridin-2-yl)piperazine-1-carboxamide]",9,3910,–,–,–,–
"Cc1ccc(N(Cc2ccc(C(=O)NO)cc2)C(=O)N2CC(C)OC(C)C2)c(F)c1 (stereo not drawn) [Compound 440, N-(2-fluoro-4-methylphenyl)-N-(4-(hydroxycarbamoyl)benzyl)-2,6-dimethylmorpholine-4-carboxamide]",2,988,–,–,–,–
"O=C(NO)c1ccc(CN(C(=O)N2CCN(c3ccc(F)cc3)CC2)c2ccccn2)cc1 [Compound 357, 4-(4-fluorophenyl)-N-(4-(hydroxycarbamoyl)benzyl)-N-(pyridin-2-yl)piperazine-1-carboxamide]",3,3280,–,–,–,–
"O=C(NO)c1ccc(CN(C(=O)N2CCOCC2)c2ccc(F)c(Cl)c2)cc1 [Compound 458, N-(3-chloro-4-fluorophenyl)-N-(4-(hydroxycarbamoyl)benzyl)morpholine-4-carboxamide]",1,474,–,–,–,–
"CC1CN(C(=O)N(Cc2ccc(C(=O)NO)cc2)c2ncccn2)CC(C)O1 (stereo not drawn) [Compound 313, N-(4-(hydroxycarbamoyl)benzyl)-2,6-dimethyl-N-(pyrimidin-2-yl)morpholine-4-carboxamide]",7,35900,–,–,–,–

# More lines, main results first:
IC50 [1] [nM],IC50 [2] [nM],Structure (SMILES),clinical score ([3]; 25 mg/kg twice a day),clinical score ([3]; 50 mg/kg twice a day),improvement compared with MTX used as the control group ([3]; 25 and 50 mg/kg twice a day),"arthritis symptoms improved by ([3]; 25 and 50 mg/kg twice a day, versus vehicle group) [%]"
19,703,"CC(=O)N1CCC(c2cccc(N(Cc3ccc(C(=O)NO)cc3)C(=O)N3CCOCC3)c2)CC1 [Compound 490, N-(3-(1-acetylpiperidin-4-yl)phenyl)-N-(4-(hydroxycarbamoyl)benzyl)morpholine-4-carboxamide]",–,–,–,–
11,3330,"O=C(NO)c1ccc(CN(C(=O)N2CC[C@@H](F)C2)c2cccc(C(F)(F)F)c2)cc1 [Compound 495, (R)-3-fluoro-N-(4-(hydroxycarbamoyl)benzyl)-N-(3-(trifluoromethyl)phenyl)pyrrolidine-1-carboxamide]",–,–,–,–
6.4,727,"O=C(NO)c1ccc(CN(C(=O)N2CCN(CC3(F)CCOCC3)CC2)c2cccc(C(F)(F)F)c2)cc1 [Compound 716, 4-((4-fluorotetrahydro-2H-pyran-4-yl)methyl)-N-(4-(hydroxycarbamoyl)benzyl)-N-(3-(trifluoromethyl)phenyl)piperazine-1-carboxamide]",–,–,–,–
15,1240,"O=C(NO)c1ccc(CN(C(=O)N2CCC(O)CC2)c2cccc(C3=CCOCC3)c2)c(F)c1 [Compound 514, N-(3-(3,6-dihydro-2H-pyran-4-yl)phenyl)-N-(2-fluoro-4-(hydroxycarbamoyl)benzyl)-4-hydroxypiperidine-1-carboxamide]",–,–,–,–
1.2,1000,"O=C(NO)c1ccc(CN(C(=O)N2CCOCC2)c2ccc(C(F)(F)F)cc2)c(F)c1 [Compound 577, N-(2-fluoro-4-(hydroxycarbamoyl)benzyl)-N-(4-(trifluoromethyl)phenyl)morpholine-4-carboxamide]",–,–,–,–
21,667,"O=C(NO)c1ccc(CN(C(=O)N2CCCOCC2)c2ccc(C(F)(F)F)cc2)cc1 [Compound 580, N-(4-(hydroxycarbamoyl)benzyl)-N-(4-(trifluoromethyl)phenyl)-1,4-oxazepane-4-carboxamide]",–,–,–,–
15,2080,"COc1ccccc1N1CCN(C(=O)N(Cc2ccc(C(=O)NO)cc2)c2ccc(F)c(Cl)c2)CC1 [Compound 481, N-(3-chloro-4-fluorophenyl)-N-(4-(hydroxycarbamoyl)benzyl)-4-(2-methoxyphenyl)piperazine-1-carboxamide]",–,–,–,–
9.4,1600,"C[C@@H]1CN(C(=O)N(Cc2ccc(C(=O)NO)cc2)c2cccc(C(F)(F)F)c2)C[C@H](C)N1Cc1ccccc1 [Compound 802, (3S,5R)-4-benzyl-N-(4-(hydroxycarbamoyl)benzyl)-3,5-dimethyl-N-(3-(trifluoromethyl)phenyl)piperazine-1-carboxamide]",–,–,–,–

# Reference: patent publication US9878986B2, “Compounds for selective histone deacetylase inhibitors, and pharmaceutical composition comprising the same” (CHONG KUN DANG PHARMACEUTICAL CORP., priority 2013, dated 2018)
